# Laboratory results reported in patent US10774076B2, “Benzazole compounds and methods for making and using the compounds” (Rigel Pharmaceuticals, Inc., priority 2015, dated 2020).
# Tests used:
# IL23p19 = assay: LPS Induced IL23p19 in THP-1 Cells (with IFNγ Primed) Assay; format: cell-based; details: Homo sapiens, IFNγ primed (50 ng/mL), LPS 1 ug/mL, 18 hours, 10 pt, read-out: IL23-p19 ELISA, THP1-IFNy, LPS, 10 pt EC50
# Text: LPS Induced IL23p19 in THP-1 Cells (with IFNγ Primed) Assay
# THP-1 Cells (ATCC, Cat # TIB-202), Dimethyl Sulfoxide (DMSO) (Sigma-Aldrich, Cat # D2650), RPMI 1640 (Cellgro, Cat #10-040-CM), Fetal Bovine Serum (Sigma, Cat # F4135), Albumin From Bovine Serum (BSA) (Sigma-Aldrich, Cat # A7906), LPS (Serotype K-235, Sigma, Product Number L 2143), IFNγ (Peprotech, Cat #300-02)
# Capture antibody: Human IL-23p19 ELISA (e-Bioscience, Cat. #14-7238-85),
# Detection antibody: Primary Mouse Biotinylated anti-human IL-12(p40/p70) (e-Bioscience, Cat. #13-7129-85), Secondary HRP-conjugated Streptavidin (R&D Systems, Cat # DY998), 1×PBST Washing Buffer (PBS-Tween tablet) (VWR International, Cat #80058-558), ELISA Blocking Buffer (PBS with 1% BSA), ELISA Dilution Buffer (PBS with 1% BSA), 384 Well Flat-Bottom, MaxiSorp Black Immuno Plates (Thermo Scientific, Cat #12-565-346), 384 Well Flat-Bottom, White Tissue Culture Plates (Thermo Scientific, Cat #12-565-343), Super Signal ELISA Pico Chemiluminescent Substrate (Thermo Scientific, Cat #37070), Cell Titer Glo reagent (Promega, Cat # G7573), Positive control, IKK2VI inhibitor (Calbiochem, Cat #401483), AquaMax 4000 plate washer (Molecular Devices), Luminometer, Wallac Victor2 1420 Multilabel Counter. Method THP-1 Cells Stimulation:
# On day 1, 50K/well THP-1 cells were seeded and primed with IFNγ (50 ng/mL) in 384-well plates for about 18 hours in RPMI media with 10% FBS. On day 2, the compound was serially diluted in DMSO from 5 mM in 3-fold dilutions, and then diluted 1:125 in RPMI media with 10% FBS. 50 μL/well 2× compound was added to 50 μL/well THP-1 cells (with IFNγ primed) in duplicate in 384 well tissue culture plates. The cells were pre-incubated with compound for 1 hour at 37° C., 5% CO2 before addition of 10 μL/well 11×LPS to give a final concentration of 1 ug/mL LPS. Day 3, after stimulation for 18 hours at 37° C., 5% CO2, the assay plate was centrifuged and 70 μL/well supernatant was harvested. IL-23p19 protein in 70 μL/well of supernatant was measured by sandwich ELISA, and 25 μl/well Cell Titer Glo reagent was added to the remaining cells to measure compound toxicity.
# Human IL-23p19 Sandwich ELISA:
# Maxisorp immuno ELISA plates were pre-coated with 25 μL/well of anti-IL-23p19 capture antibody (2.5 ug/mL) in PBS overnight at room temperature. After washing with 1×PBST, the plates were blocked using 100 μL/well of 1% BSA in PBS for 2 hours at room temperature. The plates were washed three times with 1×PBST and 70 μL/well supernatant were added. The plates were incubated at room temperature for 2 hours with shaking and washed three times with 1×PBST. 25 μL/well of biotin labeled anti-IL-12(p40/p70) detection antibody (100 ng/mL) in PBS with 1% BSA was added and the plates were incubated at room temperature for 2 hours with shaking. After washing three times with 1×PBST, 25 μL/well of streptavidin-HRP (1:200) in PBS with 1% BSA was added and the plates were incubated at room temperature for 20 minutes with shaking. The plates were washed three times with 1×PBST and 25 μL/well of Super Signal ELISA Pico Chemiluminescent Substrate were added. The plates were read with a luminometer, and the chemiluminescence values were entered into Athena (Rigel) for curve fitting, EC50 calculation, and database storage.
# IL23-p19 = assay: Compound screening using DC cells: LPS-induced IL-23 (p19/p40) ELISA in IFNγ-primed dendritic cells differentiated from human PBMC; format: cell-based; details: Dendritic cell, human PBMC-derived dendritic cells, LPS 1 μg/ml, 18 hours, 10 pt
# Description: Compound Screening Using DC Cells
# Human PBMC cells (400 million) obtained from the vendor were transferred into a T-175 flask containing 15 ml RPMI media (10% FBS) and incubate for 2 hours at 37° C. After 2 hours, the media including floating cells was aspirated out carefully and 12 ml of fresh RPMI media (10% FBS) containing GMCSF (100 ng/ml) and IL4 (20 ng/ml) was added, and the flask was kept in a 37° C. incubator for 7 days.
# After 3 days, fresh GMCSF (100 ng/ml) and IL4 (20 ng/ml) were added to the flask and the incubation continued. After 7 days, the fully differentiated cells were harvested by spinning down (1200 rpm/5 min) and aspirating the media. The cells were suspended in fresh RPMI media (10% FBS) containing 50 ng/ml IFNγ (1000 U/ml) and then plated (50K/well in 100 μl) onto a white clear bottom 96 well plate and left in a 37° C. incubator for 24 hours.
# After 24 hours incubation, 100 μl of RPMI media was added containing 2× concentrated test compound per well to the above cell-culture media (final concentration becomes 1×) and the plates were pre-incubated for 1 hour at 37° C. before stimulating with LPS.
# After 1 hour compound pre-incubation, 10 μl per well of 20× concentrated LPS solution in RPMI media was added to give a final concentration of 1 μg/ml. The mixture was shaken and incubated the plates at 37° C. for an additional 18 hours.
# 155 μl of the supernatant was harvested from each well carefully (without the tip touching the bottom of the well) and to the remaining 50 μl/well of the cell culture plate was added 50 μl of Cell Titer Glo reagent. The mixture was incubated for 1-2 minutes on a shaker and the plate was read for luminescence intensity to determine the compound cytotoxicity. The cell culture supernatant collected above was used to carry out IL23 ELISA (65 μl—Supernatant) and IL10 ELISA (90 μl—Supernatant) as described below.
# Human IL-23 (p19/p40) ELISA Protocol (e-Biosciences)
# To 10.5 ml PBS add 50 μl of anti-IL23 (p19) was added capture antibody (2.5 μg/ml). The mixture was mixed well and 100 μl of the coating solution was added to each well of the 96 well white plates from Pierce. The wells were covered and incubated overnight at 4° C.
# The anti-IL23 (p19)-antibody-coated plates were washed 2× using TBST (use plate washer) and blocked using 200 μl of 0.5% Casein for 1.5-2 hours at room temperature with shaking.
# The plates were washed 2× using TBST and the supernatant was transferred (65 μl/well) to the above pre-blocked/IL23(p19)-antibody-coated 96 well plate, and incubated at room temperature for 1.5 hours with shaking.
# The plates were washed 4× using TBST (plate washer) and 100 μl/well detection antibody solution prepared from 2 μl of biotin labeled anti-IL-12 (p40/p70) antibody in 11 ml 1% BSA/PBS solution (I-5000 dilution) was added. The plates were incubated for 1 hour with shaking at Room temperature.
# Again, the plates were washed 4× with TBST and 100 μl of HRP labeled Streptavidin (R&D Systems) solution (10 μl/10 ml 1% BSA solution) was added, and the plates were incubated at room temperature for another 45 minutes with shaking.
# After 45 minutes, the plates were washed with TBST 4× and 100 ul/well Super Signal ELISA Pico Chemiluminescent Substrate from Pierce (3.5 ml A+3.5 ml B+3.5 ml MQ water) was added. The plates were shaken for 1-2 minutes then read on a plate reader.
SMILES,EC50 (IL23p19),EC50 (IL23-p19)
"O=C(Nc1cc2oc(N3CCOCC3)nc2cc1N1CCCCC1)c1ccc(-c2cc[nH]n2)o1 [Compound I-4, N-(2-morpholino-5-(piperidin-1-yl)benzo[d]oxazol-6-yl)-5-(1H-pyrazol-3-yl)furan-2-carboxamide]",0.901 µM,12.1 µM
"Cc1cc(-c2nc(C(=O)Nc3cc4oc(N5CCOCC5)nc4cc3N3CCC(F)(F)CC3)cs2)ccn1 [Compound I-30, N-(5-(4,4-difluoropiperidin-1-yl)-2-morpholinobenzo[d]oxazol-6-yl)-2-(2-methylpyridin-4-yl)thiazole-4-carboxamide]",43.5 µM,
"CN1CCN(c2nc3cc(N4CCCCC4)c(NC(=O)c4ccc(-c5ccc(N)nc5)o4)cc3o2)CC1 [Compound I-15, 5-(6-aminopyridin-3-yl)-N-(2-(4-methylpiperazin-1-yl)-5-(piperidin-1-yl)benzo[d]oxazol-6-yl)furan-2-carboxamide]",73 µM,1.69 µM
"O=C(Nc1cc2sc(N3CCOCC3)nc2cc1N1CCCCC1)c1ccc(-c2cc[nH]n2)o1 [Compound I-8, N-(2-morpholino-5-(piperidin-1-yl)benzo[d]thiazol-6-yl)-5-(1H-pyrazol-3-yl)furan-2-carboxamide]",0.614 µM,
"Cc1cc(-c2ccc(C(=O)Nc3cc4oc(N5CCCCC5)nc4cc3N3CCCCC3)o2)ccn1 [Compound I-33, N-(2,5-di(piperidin-1-yl)benzo[d]oxazol-6-yl)-5-(2-methylpyridin-4-yl)furan-2-carboxamide]",4450 µM,
"Nc1ccc(-c2nc(C(=O)Nc3cc4oc(N5CCCCC5)nc4cc3N3CCCCC3)cs2)cn1 [Compound I-34, 2-(6-aminopyridin-3-yl)-N-(2,5-di(piperidin-1-yl)benzo[d]oxazol-6-yl)thiazole-4-carboxamide]",8.32 µM,
"Cc1cc(-c2nc(C(=O)Nc3cc4oc(N5CCCCC5)nc4cc3N3CCCCC3)cs2)ccn1 [Compound I-37, N-(2,5-di(piperidin-1-yl)benzo[d]oxazol-6-yl)-2-(2-methylpyridin-4-yl)thiazole-4-carboxamide]",23.1 µM,
"O=C(Nc1cc2oc(N3CCOCC3)nc2cc1N1CCCCC1)c1csc(-c2cc[nH]n2)n1 [Compound I-13, N-(2-morpholino-5-(piperidin-1-yl)benzo[d]oxazol-6-yl)-2-(1H-pyrazol-3-yl)thiazole-4-carboxamide]",2.93 µM,
"Nc1ccc(-c2nc(C(=O)Nc3cc4oc(N5CCOCC5)nc4cc3N3CCCCC3)cs2)cn1 [Compound I-11, 2-(6-aminopyridin-3-yl)-N-(2-morpholino-5-(piperidin-1-yl)benzo[d]oxazol-6-yl)thiazole-4-carboxamide]",228 µM,
"Cc1cc(-c2nc(C(=O)Nc3cc4oc(N5CCOCC5)nc4cc3N3CCC(F)CC3)cs2)ccn1 [Compound I-26, N-(5-(4-fluoropiperidin-1-yl)-2-morpholinobenzo[d]oxazol-6-yl)-2-(2-methylpyridin-4-yl)thiazole-4-carboxamide]",1.18 µM,
"O=C(Nc1cc2oc(N3CCCCC3)nc2cc1N1CCCCC1)c1csc(-c2cc[nH]n2)n1 [Compound I-36, N-(2,5-di(piperidin-1-yl)benzo[d]oxazol-6-yl)-2-(1H-pyrazol-3-yl)thiazole-4-carboxamide]",5.24 µM,

# The next compounds have a lower EC50 (IL23p19) than those just listed; values first:
EC50 (IL23p19),EC50 (IL23-p19),SMILES
0.0587 µM,0.0375 µM,"O=C(Nc1cc2oc(N3CCOCC3)nc2cc1N1CCCC1)c1ccc(-c2cn[nH]c2)o1 [Compound I-46, N-(2-morpholino-5-(pyrrolidin-1-yl)benzo[d]oxazol-6-yl)-5-(1H-pyrazol-4-yl)furan-2-carboxamide]"
0.02 µM,0.0371 µM,"O=C(Nc1cc2oc(NCCN3CCOCC3)nc2cc1N1CCCCC1)c1csc(-c2cn[nH]c2)n1 [Compound I-52, N-(2-((2-morpholinoethyl)amino)-5-(piperidin-1-yl)benzo[d]oxazol-6-yl)-2-(1H-pyrazol-4-yl)thiazole-4-carboxamide]"
0.18 µM,0.121 µM,"CN(CCN1CCOCC1)c1nc2cc(N3CCCCC3)c(NC(=O)c3ccc(-c4cn[nH]c4)o3)cc2o1 [Compound I-53, N-(2-(methyl(2-morpholinoethyl)amino)-5-(piperidin-1-yl)benzo[d]oxazol-6-yl)-5-(1H-pyrazol-4-yl)furan-2-carboxamide]"
0.355 µM,8.07 µM,"Cc1cc(-c2ccc(C(=O)Nc3cc4oc(N5CCOCC5)nc4cc3N3CCCC(F)C3)o2)ccn1 (centres unmarked) [Compound I-39, N-(5-(3-fluoropiperidin-1-yl)-2-morpholinobenzo[d]oxazol-6-yl)-5-(2-methylpyridin-4-yl)furan-2-carboxamide]"
0.0482 µM,0.121 µM,"O=C(Nc1cc2oc(N3CCOCC3)nc2cc1N1CCC(F)CC1)c1csc(-c2cn[nH]c2)n1 [Compound I-25, N-(5-(4-fluoropiperidin-1-yl)-2-morpholinobenzo[d]oxazol-6-yl)-2-(1H-pyrazol-4-yl)thiazole-4-carboxamide]"
